Our source for the MIC and ED50 values is ChEMBL document CHEMBL1139296, “Pleuromutilin derivatives having a purine ring. Part 2: influence of the central spacer on the antibacterial activity against Gram-positive pathogens” (2009).

One assay relates to Streptococcus pyogenes. The assay is described as follows: Antimicrobial activity against Streptococcus pyogenes […] by NCCLS method. The class given is functional.
Molecule `C=C[C@]1(C)C[C@@H](OC(=O)CNC2CCN(C(=O)CCn3cnc4c(N5CCC(N)C5)ncnc43)CC2)[C@]2(C)[C@H](C)CC[C@]3(CCC(=O)[C@@H]32)[C@@H](C)[C@@H]1O.Cl` (stereo partly specified) came in with an MIC of 0.063 µg/mL.

`C=C[C@]1(C)C[C@@H](OC(=O)CSCCCN(C)C(=O)CCn2cnc3c(N4CCC(N)C4)ncnc32)[C@]2(C)[C@H](C)CC[C@]3(CCC(=O)[C@@H]32)[C@@H](C)[C@@H]1O.Cl` (stereo partly specified) registered an MIC of 0.008 µg/mL.

As for `C=C[C@]1(C)C[C@@H](OC(=O)CSCC2CCN(C(=O)CCn3cnc4c(N5CCNCC5)nc(N)nc43)CC2)[C@]2(C)[C@H](C)CC[C@]3(CCC(=O)[C@@H]32)[C@@H](C)[C@@H]1O.Cl`, the MIC was 0.016 µg/mL.

`C=C[C@]1(C)C[C@@H](OC(=O)CSC2CCN(C(=O)CCn3cnc4c(N5CCC(N)C5)ncnc43)CC2)[C@]2(C)[C@H](C)CC[C@]3(CCC(=O)[C@@H]32)[C@@H](C)[C@@H]1O.Cl` (stereo partly specified) had an MIC of 0.016 µg/mL.

The test system of a further assay is Streptococcus pneumoniae. The assay is described as follows: Antimicrobial activity against penicillin-resistant Streptococcus pneumoniae KT2524 by NCCLS method. The class given is functional.
`C=C[C@]1(C)C[C@@H](OC(=O)CNC2CCN(C(=O)CCn3cnc4c(N5CCC(N)C5)ncnc43)CC2)[C@]2(C)[C@H](C)CC[C@]3(CCC(=O)[C@@H]32)[C@@H](C)[C@@H]1O.Cl` (stereo partly specified): the MIC came out at 0.125 µg/mL.

Turning to `C=C[C@]1(C)C[C@@H](OC(=O)CSCCCN(C)C(=O)CCn2cnc3c(N4CCC(N)C4)ncnc32)[C@]2(C)[C@H](C)CC[C@]3(CCC(=O)[C@@H]32)[C@@H](C)[C@@H]1O.Cl` (stereo partly specified), the MIC was found to be 0.016 µg/mL.

`C=C[C@]1(C)C[C@@H](OC(=O)CSCC2CCN(C(=O)CCn3cnc4c(N5CCNCC5)nc(N)nc43)CC2)[C@]2(C)[C@H](C)CC[C@]3(CCC(=O)[C@@H]32)[C@@H](C)[C@@H]1O.Cl` gave an MIC of 0.032 µg/mL.

The molecule `C=C[C@]1(C)C[C@@H](OC(=O)CSC2CCN(C(=O)CCn3cnc4c(N5CCC(N)C5)ncnc43)CC2)[C@]2(C)[C@H](C)CC[C@]3(CCC(=O)[C@@H]32)[C@@H](C)[C@@H]1O.Cl` (stereo partly specified) returned an MIC of 0.032 µg/mL.

Another assay concerns Staphylococcus aureus. The assay is described as follows: Antimicrobial activity against methicillin-susceptible Staphylococcus aureus Smith by NCCLS method. The class given is functional.
`C=C[C@]1(C)C[C@@H](OC(=O)CNC2CCN(C(=O)CCn3cnc4c(N5CCC(N)C5)ncnc43)CC2)[C@]2(C)[C@H](C)CC[C@]3(CCC(=O)[C@@H]32)[C@@H](C)[C@@H]1O.Cl` (stereo partly specified) registered an MIC of 0.25 µg/mL.

On to `C=C[C@]1(C)C[C@@H](OC(=O)CSCCCN(C)C(=O)CCn2cnc3c(N4CCC(N)C4)ncnc32)[C@]2(C)[C@H](C)CC[C@]3(CCC(=O)[C@@H]32)[C@@H](C)[C@@H]1O.Cl` (stereo partly specified), for which the MIC turned out to be 0.125 µg/mL.

For the molecule `C=C[C@]1(C)C[C@@H](OC(=O)CSCC2CCN(C(=O)CCn3cnc4c(N5CCNCC5)nc(N)nc43)CC2)[C@]2(C)[C@H](C)CC[C@]3(CCC(=O)[C@@H]32)[C@@H](C)[C@@H]1O.Cl`, the MIC was 0.25 µg/mL.

The molecule `C=C[C@]1(C)C[C@@H](OC(=O)CSC2CCN(C(=O)CCn3cnc4c(N5CCC(N)C5)ncnc43)CC2)[C@]2(C)[C@H](C)CC[C@]3(CCC(=O)[C@@H]32)[C@@H](C)[C@@H]1O.Cl` (stereo partly specified) showed an MIC of 0.063 µg/mL.

A further assay concerns Staphylococcus aureus. The assay is described as follows: Antimicrobial activity against methicillin-resistant Staphylococcus aureus KMP9. The class given is functional.
In the case of `C=C[C@]1(C)C[C@@H](OC(=O)CNC2CCN(C(=O)CCn3cnc4c(N5CCC(N)C5)ncnc43)CC2)[C@]2(C)[C@H](C)CC[C@]3(CCC(=O)[C@@H]32)[C@@H](C)[C@@H]1O.Cl` (stereo partly specified), the MIC worked out at 2 µg/mL.

For the molecule `C=C[C@]1(C)C[C@@H](OC(=O)CSCCCN(C)C(=O)CCn2cnc3c(N4CCC(N)C4)ncnc32)[C@]2(C)[C@H](C)CC[C@]3(CCC(=O)[C@@H]32)[C@@H](C)[C@@H]1O.Cl` (stereo partly specified), the MIC worked out at 0.25 µg/mL.

As to `C=C[C@]1(C)C[C@@H](OC(=O)CSCC2CCN(C(=O)CCn3cnc4c(N5CCNCC5)nc(N)nc43)CC2)[C@]2(C)[C@H](C)CC[C@]3(CCC(=O)[C@@H]32)[C@@H](C)[C@@H]1O.Cl`, the MIC worked out at 0.5 µg/mL.

In turn, `C=C[C@]1(C)C[C@@H](OC(=O)CSC2CCN(C(=O)CCn3cnc4c(N5CCC(N)C5)ncnc43)CC2)[C@]2(C)[C@H](C)CC[C@]3(CCC(=O)[C@@H]32)[C@@H](C)[C@@H]1O.Cl` (stereo partly specified) yielded an MIC of 0.125 µg/mL.

Another assay concerns Streptococcus pneumoniae. The assay is described as follows: Antimicrobial activity against penicillin-susceptible Streptococcus pneumoniae ATCC 49619 by NCCLS method. Format: functional.
For `C=C[C@]1(C)C[C@@H](OC(=O)CNC2CCN(C(=O)CCn3cnc4c(N5CCC(N)C5)ncnc43)CC2)[C@]2(C)[C@H](C)CC[C@]3(CCC(=O)[C@@H]32)[C@@H](C)[C@@H]1O.Cl` (stereo partly specified), the MIC stood at 0.125 µg/mL.

In turn, `C=C[C@]1(C)C[C@@H](OC(=O)CSCCCN(C)C(=O)CCn2cnc3c(N4CCC(N)C4)ncnc32)[C@]2(C)[C@H](C)CC[C@]3(CCC(=O)[C@@H]32)[C@@H](C)[C@@H]1O.Cl` (stereo partly specified) displayed an MIC of 0.016 µg/mL.

`C=C[C@]1(C)C[C@@H](OC(=O)CSCC2CCN(C(=O)CCn3cnc4c(N5CCNCC5)nc(N)nc43)CC2)[C@]2(C)[C@H](C)CC[C@]3(CCC(=O)[C@@H]32)[C@@H](C)[C@@H]1O.Cl` yielded an MIC of 0.032 µg/mL.

Regarding `C=C[C@]1(C)C[C@@H](OC(=O)CSC2CCN(C(=O)CCn3cnc4c(N5CCC(N)C5)ncnc43)CC2)[C@]2(C)[C@H](C)CC[C@]3(CCC(=O)[C@@H]32)[C@@H](C)[C@@H]1O.Cl` (stereo partly specified), the MIC worked out at 0.016 µg/mL.

A further assay relates to Enterococcus faecium. The assay is described as follows: Antimicrobial activity against vancomycin-resistant Enterococcus faecium KU1778 by NCCLS method. The class given is functional.
Molecule `C=C[C@]1(C)C[C@@H](OC(=O)CNC2CCN(C(=O)CCn3cnc4c(N5CCC(N)C5)ncnc43)CC2)[C@]2(C)[C@H](C)CC[C@]3(CCC(=O)[C@@H]32)[C@@H](C)[C@@H]1O.Cl` (stereo partly specified) registered an MIC of 0.5 µg/mL.

Turning to `C=C[C@]1(C)C[C@@H](OC(=O)CSCCCN(C)C(=O)CCn2cnc3c(N4CCC(N)C4)ncnc32)[C@]2(C)[C@H](C)CC[C@]3(CCC(=O)[C@@H]32)[C@@H](C)[C@@H]1O.Cl` (stereo partly specified), the MIC worked out at 0.063 µg/mL.

As to `C=C[C@]1(C)C[C@@H](OC(=O)CSCC2CCN(C(=O)CCn3cnc4c(N5CCNCC5)nc(N)nc43)CC2)[C@]2(C)[C@H](C)CC[C@]3(CCC(=O)[C@@H]32)[C@@H](C)[C@@H]1O.Cl`, the MIC stood at 0.063 µg/mL.

In the case of `C=C[C@]1(C)C[C@@H](OC(=O)CSC2CCN(C(=O)CCn3cnc4c(N5CCC(N)C5)ncnc43)CC2)[C@]2(C)[C@H](C)CC[C@]3(CCC(=O)[C@@H]32)[C@@H](C)[C@@H]1O.Cl` (stereo partly specified), the MIC was determined as 0.032 µg/mL.

Another assay has as its system Moraxella catarrhalis. The assay is described as follows: Antimicrobial activity against Moraxella catarrhalis K1209 by NCCLS method. The class given is functional.
Consider `C=C[C@]1(C)C[C@@H](OC(=O)CNC2CCN(C(=O)CCn3cnc4c(N5CCC(N)C5)ncnc43)CC2)[C@]2(C)[C@H](C)CC[C@]3(CCC(=O)[C@@H]32)[C@@H](C)[C@@H]1O.Cl` (stereo partly specified), for which the MIC came to 0.25 µg/mL.

Molecule `C=C[C@]1(C)C[C@@H](OC(=O)CSCCCN(C)C(=O)CCn2cnc3c(N4CCC(N)C4)ncnc32)[C@]2(C)[C@H](C)CC[C@]3(CCC(=O)[C@@H]32)[C@@H](C)[C@@H]1O.Cl` (stereo partly specified) came in with an MIC of 0.063 µg/mL.

In the case of `C=C[C@]1(C)C[C@@H](OC(=O)CSCC2CCN(C(=O)CCn3cnc4c(N5CCNCC5)nc(N)nc43)CC2)[C@]2(C)[C@H](C)CC[C@]3(CCC(=O)[C@@H]32)[C@@H](C)[C@@H]1O.Cl`, the MIC was 0.125 µg/mL.

`C=C[C@]1(C)C[C@@H](OC(=O)CSC2CCN(C(=O)CCn3cnc4c(N5CCC(N)C5)ncnc43)CC2)[C@]2(C)[C@H](C)CC[C@]3(CCC(=O)[C@@H]32)[C@@H](C)[C@@H]1O.Cl` (stereo partly specified) yielded an MIC of 0.032 µg/mL.

In the next assay the test system is Haemophilus influenzae. The assay is described as follows: Antimicrobial activity against Haemophilus influenzae TH13 by NCCLS method. Format: functional.
Turning to `C=C[C@]1(C)C[C@@H](OC(=O)CNC2CCN(C(=O)CCn3cnc4c(N5CCC(N)C5)ncnc43)CC2)[C@]2(C)[C@H](C)CC[C@]3(CCC(=O)[C@@H]32)[C@@H](C)[C@@H]1O.Cl` (stereo partly specified), the MIC stood at 2 µg/mL.

The molecule `C=C[C@]1(C)C[C@@H](OC(=O)CSCCCN(C)C(=O)CCn2cnc3c(N4CCC(N)C4)ncnc32)[C@]2(C)[C@H](C)CC[C@]3(CCC(=O)[C@@H]32)[C@@H](C)[C@@H]1O.Cl` (stereo partly specified) displayed an MIC of 1 µg/mL.

Molecule `C=C[C@]1(C)C[C@@H](OC(=O)CSCC2CCN(C(=O)CCn3cnc4c(N5CCNCC5)nc(N)nc43)CC2)[C@]2(C)[C@H](C)CC[C@]3(CCC(=O)[C@@H]32)[C@@H](C)[C@@H]1O.Cl` yielded an MIC of 4 µg/mL.

`C=C[C@]1(C)C[C@@H](OC(=O)CSC2CCN(C(=O)CCn3cnc4c(N5CCC(N)C5)ncnc43)CC2)[C@]2(C)[C@H](C)CC[C@]3(CCC(=O)[C@@H]32)[C@@H](C)[C@@H]1O.Cl` (stereo partly specified): the MIC came out at 1 µg/mL.

The next assay relates to Staphylococcus aureus. The assay is described as follows: Antimicrobial activity against methicillin-susceptible Staphylococcus aureus infected mouse assessed as survival rate administered iv after 1 hr of infection. The class given is functional.
In the case of `C=C[C@]1(C)C[C@@H](OC(=O)CNC2CCN(C(=O)CCn3cnc4c(N5CCC(N)C5)ncnc43)CC2)[C@]2(C)[C@H](C)CC[C@]3(CCC(=O)[C@@H]32)[C@@H](C)[C@@H]1O.Cl` (stereo partly specified), the ED50 (as a rule, the dose at which the effect has come halfway, by size or by number of responders) amounted to 1.75 mg/kg.

Take `C=C[C@]1(C)C[C@@H](OC(=O)CSCCCN(C)C(=O)CCn2cnc3c(N4CCC(N)C4)ncnc32)[C@]2(C)[C@H](C)CC[C@]3(CCC(=O)[C@@H]32)[C@@H](C)[C@@H]1O.Cl` (stereo partly specified): the ED50 worked out at 0.86 mg/kg.

In the case of `C=C[C@]1(C)C[C@@H](OC(=O)CSCC2CCN(C(=O)CCn3cnc4c(N5CCNCC5)nc(N)nc43)CC2)[C@]2(C)[C@H](C)CC[C@]3(CCC(=O)[C@@H]32)[C@@H](C)[C@@H]1O.Cl`, the ED50 is 2.77 mg/kg.

Turning to `C=C[C@]1(C)C[C@@H](OC(=O)CSC2CCN(C(=O)CCn3cnc4c(N5CCC(N)C5)ncnc43)CC2)[C@]2(C)[C@H](C)CC[C@]3(CCC(=O)[C@@H]32)[C@@H](C)[C@@H]1O.Cl` (stereo partly specified), the ED50 is 1.47 mg/kg.
